These results are taken from patent US20240269304A1, “BCL-XL INHIBITOR ANTIBODY-DRUG CONJUGATES AND METHODS OF USE THEREOF” (Novartis AG, priority 2020, published 2024).

A short description of data set [1]: ADC stability study: % aggregates by SEC after incubation at 37° C. for 168 h. The format is physicochemical. Here is the method:
Size Exclusion Chromatography: Size exclusion chromatography (SEC) was performed for quality control of each ADCs by measuring monomer percentage of the conjugate. The analysis was performed on analytical column Superdex 200 Increase 5/150 GL (GE Healthcare, 28990945) in isocratic conditions 100% PBS pH7.4 (Sigma Life Science, P3813, 10PAK), flow 0.45 mI/min for 12 minutes. The % aggregate fraction of the conjugate sample was quantified based on the peak area absorbance at 280 nm. Its calculation was based on the ratio between the high molecular weight eluent at 280 nm divided by the sum of peak area absorbance at the same wavelength of the high molecular weight and monomeric eluents multiplied by 100.
Characterization of the exemplary ADCs is summarized in Table 13 (coupling, LC-MS method, OAR, aggregation status, ADO stability and yield). The average OAR values were determined using the above LC-MS methods and the percentage of aggregates was measured by size exclusion chromatography (SEC) during the quality control of the ADO and after the stability study (incubation at 37° C. for 168 h).

In the next data set the test system is H1650 cells. The data set can be described thus: CellTiterGlo (CTG) cell viability, 3D, 120 h, H1650 (Example 8). It is filed as cell-based, human. (In general: ATP-based viability assays read luminescence as a measure of living cells.)
Another data set deals with ALL-SIL cells. Nature of the data set: CellTiterGlo (CTG) cell viability, 72 h, ALL-SIL (Example 8). The format is cell-based. Here is the method:
ALL-SIL cells were cultivated in RPMI supplemented with 20% heat inactivated fetal bovine serum, penicillin (100 IU/ml), streptomycin (100 μg/ml) and L-glutamine (2 mM). Cell lines were cultured at 37° C. in a humidified atmosphere containing 5% CO2. Cells were seeded in 96 well clear bottom plates (96 well clear-bottom, white, Corning reference 3903) and exposed to the payloads or ADCs for 72 h (serially diluted; 9 concentrations each, triplicates). Effects of payloads or ADCs on cell viability were assessed after 3 days of incubation at 37° C./5% CO2 by quantification of cellular ATP levels using CellTiterGlo at 75 μL reagent/well. All the conditions were tested in triplicates. Luminescence was quantified on a multipurpose plate reader. IC50s were calculated using standard four-parametric curve fitting. […] Each experiment was performed at least twice, with results being reproducible.

The test system of a further data set is DND-41 cells. The data set can be described thus: CellTiterGlo (CTG) cell viability, 72 h, DND-41 (Example 8). It is filed as cell-based. Here is the method:
DND-41 cells were cultivated in RPMI supplemented with 10% heat inactivated fetal bovine serum, penicillin (100 IU/ml), streptomycin (100 μg/ml) and L-glutamine (2 mM). Cell lines were cultured at 37° C. in a humidified atmosphere containing 5% CO2. […] Effects of payloads or ADCs on cell viability were assessed after 3 days of incubation at 37° C./5% CO2 by quantification of cellular ATP levels using CellTiterGlo at 75 μL reagent/well. All the conditions were tested in triplicates. Luminescence was quantified on a multipurpose plate reader. IC50s were calculated using standard four-parametric curve fitting.

[2] abbreviates: H1650 3D, experiment n1, read-out: H1650 3D CTG IC50 n1.
Setting [3] is: H1650 3D, experiment n2, read-out: H1650 3D CTG IC50 n2.
Setting [4] is: H1650 3D, mean of n1 and n2, read-out: H1650 3D CTG IC50 Mean of n1 and n2.
Setting [5] is: experiment n2, read-out: ALLSIL CTG 72 h IC50 nM n2.
The mark [6] stands for this setting: mean of n1 and n2, read-out: ALLSIL CTG 72 h IC50 nM Mean of n1 and n2.
[7] abbreviates: DND41, experiment n1, read-out: DND41 CTG 72 h IC50 nM n1.
[8] abbreviates: DND41, experiment n2, read-out: DND41 CTG 72 h IC50 nM n2.
The mark [9] stands for this setting: DND41, mean of n1 and n2, read-out: DND41 CTG 72 h IC50 nM Mean of n1 and n2.
[10] abbreviates: Homo sapiens, NCI-H1650, H1650 3D, experiment n1, read-out: H1650 3D CTG IC50 n1.
The mark [11] stands for this setting: Homo sapiens, NCI-H1650, H1650 3D, experiment n2, read-out: H1650 3D CTG IC50 n2.
The mark [12] stands for this setting: Homo sapiens, NCI-H1650, H1650 3D, mean of n1 and n2, read-out: H1650 3D CTG IC50 Mean of n1 and n2.
Where [13] appears, read: experiment n1, read-out: ALLSIL CTG 72 h IC50 nM n1.

Where two headings read alike, the source gives them in different places.

By IC50 is commonly meant the concentration at which inhibition is half-maximal. Take `Cc1cc(N(C)c2ccc(-c3cnn(C[C@]45C[C@]6(C)C[C@](C)(C4)C[C@@](OCCN(CCCO)C(=O)OCc4ccc(NC(=O)[C@H](CCCNC(N)=O)CC(=O)[C@@H](NC(=O)CCOCCN7C(=O)CC(C)C7=O)C(C)C)cc4)(C6)C5)c3C)c(C(=O)O)n2)nnc1Nc1nc2ccccc2s1` (mixture of isomers) [Ab C - L9C-P26]: the “Stab w1 +37° C. % Agg (by SEC)” value in data set [1] is 3%. The IC50 in the data set with H1650 cells (setting [2]) turned out to be 0.12 nM; in the data set on H1650 cells (setting [3]), 0.11 nM; with H1650 cells (setting [4]), 0.12 nM.

Turning to `Cc1c(Nc2nc3ccccc3s2)nnc2c1CCCN2c1nc(C(=O)[O-])c(CCCOc2ccc(C#CC[N+](C)(C)Cc3ccc(NC(=O)[C@H](CCCNC(N)=O)NC(=O)[C@@H](NC(=O)CCOCCN4C(=O)CC(C)C4=O)C(C)C)cc3)cc2F)[nH]1` (some centres unmarked) [Ab C - L9A-P1], the “Stab w1 +37° C. % Agg (by SEC)” value in data set [1] was determined as 6%. Moreover, the results for the IC50 with H1650 cells (setting [2]), in the data set on H1650 cells (setting [3]) and with H1650 cells (setting [4]) were 0.49 nM, 0.33 nM and 0.41 nM, respectively.

Regarding `Cc1c(Nc2nc3ccccc3s2)nnc2c1CCCN2c1nc(C(=O)[O-])c(CCCOc2ccc(C#CC(C)N3CC[N+](C)(Cc4ccc(NC(=O)[C@H](CCCNC(N)=O)NC(=O)[C@@H](NC(=O)CCOCCN5C(=O)CC(C)C5=O)C(C)C)cc4)CC3)cc2F)s1` (some centres unmarked) [Ab C - L9A-P8], the “Stab w1 +37° C. % Agg (by SEC)” value in data set [1] was determined as 7%. In addition, the IC50 in the data set on H1650 cells (setting [2]) came to 0.14 nM; in the data set on H1650 cells (setting [3]), 0.3 nM; in the data set on H1650 cells (setting [4]) it was 0.22 nM.

`Cc1cc(N(C)c2nc(C(=O)[O-])c(CCCOc3ccc(C#CC(C)[N+](C)(C)Cc4ccc(NC(=O)[C@H](CCCNC(N)=O)NC(=O)[C@@H](NC(=O)CCOCCN5C(=O)CC(C)C5=O)C(C)C)cc4)cc3F)s2)nnc1Nc1nc2ccccc2s1` (some centres unmarked) [Ab C - L9A-P11]: in data set [1], the “Stab w1 +37° C. % Agg (by SEC)” value was found to be 2.4%. Besides, the half-inhibitory concentration (IC50) with H1650 cells (setting [2]), with H1650 cells (setting [3]) and with H1650 cells (setting [4]) was 0.5 nM each time.

Turning to `CC[N+](C)(CC#Cc1ccc(OCCCc2sc(N3CCCc4c3nnc(Nc3nc5ccccc5s3)c4C)nc2C(=O)O)c(F)c1)Cc1ccc(NC(=O)[C@H](CCCNC(N)=O)NC(=O)[C@@H](NC(=O)CCOCCN2C(=O)CC(C)C2=O)C(C)C)cc1` (some centres unmarked) [Ab C - L9A-P13], in data set [1], the “Stab w1 +37° C. % Agg (by SEC)” value was 0.2%. The IC50 was 0.9 nM with H1650 cells (setting [2]), 0.7 nM in the data set on H1650 cells (setting [3]) and 0.8 nM in the data set with H1650 cells (setting [4]).

Regarding `Cc1c(Nc2nc3ccccc3s2)nnc2c1CCCN2c1nc(C(=O)O)c(CCCOc2ccc(C#CCN3CCN(C)CC3)cc2F)s1` [P10, 2-[3-(1,3-Benzothiazol-2-ylamino)-4-methyl-6,7-dihydro-5H-pyrido[2,3-c]pyridazin-8-yl]-5-[3-[2-fluoro-4-[3-(4-methylpiperazin-1-yl)prop-1-ynyl]phenoxy]propyl] thiazole-4-carboxylic acid], the “ALLSIL CTG 72 h IC50 nM n1” value in the data set on ALL-SIL cells (experiment n1) is “<Cmin”. Besides, the IC50 was found to be 0.01 nM with ALL-SIL cells (setting [5]); 0.01 nM with ALL-SIL cells (setting [6]); 0.2 nM in the data set on DND-41 cells (setting [7]); 0.29 nM with DND-41 cells (setting [8]); 0.25 nM in the data set on DND-41 cells (setting [9]); 0.3 nM in the data set with H1650 cells (setting [10]). The IC50 was 0.8 nM with H1650 cells (setting [11]) and 0.55 nM in the data set on H1650 cells (setting [12]).

With `CCN(C)CC#Cc1ccc(OCCCc2sc(N3CCCc4c3nnc(Nc3nc5ccccc5s3)c4C)nc2C(=O)O)c(F)c1` [P13, 2-[3-(1,3-Benzothiazol-2-ylamino)-4-methyl-6,7-dihydro-5H-pyrido[2,3-c]pyridazin-8-yl]-5-[3-[4-[3-[ethyl(methyl)amino]prop-1-ynyl]-2-fluoro-phenoxy]propyl]thiazole-4-carboxylic acid], the IC50 in the data set with ALL-SIL cells (setting [13]) is 2.6 nM; in the data set with ALL-SIL cells (setting [5]) it was 1.44 nM; in the data set with ALL-SIL cells (setting [6]), 2.02 nM; with DND-41 cells (setting [7]), 11.8 nM; with DND-41 cells (setting [8]), 12.1 nM; with DND-41 cells (setting [9]) it was 11.9 nM. Also, the IC50 with H1650 cells (setting [10]) was 1.8 nM; in the data set with H1650 cells (setting [11]), 3 nM; in the data set with H1650 cells (setting [12]), 2.4 nM.

Turning to `Cc1c(Nc2nc3ccccc3s2)nnc2c1CCCN2c1nc(C(=O)O)c(CCCOc2ccc(C#CCN3CCNCC3)cc2F)s1` [P17, 2-[3-(1,3-Benzothiazol-2-ylamino)-4-methyl-6,7-dihydro-5H-pyrido[2,3-c]pyridazin-8-yl]-5-[3-[2-fluoro-4-(3-piperazin-1-ylprop-1-ynyl)phenoxy]propyl]thiazole-4-carboxylic acid], the IC50 with ALL-SIL cells (setting [13]) was 0.13 nM; in the data set on ALL-SIL cells (setting [5]) it was 0.26 nM; in the data set on ALL-SIL cells (setting [6]) it was 0.2 nM; in the data set on DND-41 cells (setting [7]), 0.4 nM; with DND-41 cells (setting [8]) it was 0.7 nM; in the data set on DND-41 cells (setting [9]), 0.55 nM. Further, the values for the IC50 with H1650 cells (setting [10]), in the data set with H1650 cells (setting [11]) and with H1650 cells (setting [12]) were 3.15 nM, 5.3 nM and 4.23 nM, respectively.

For `Cc1c(Nc2nc3ccccc3s2)nnc2c1CCCN2c1ccc(-c2cnn(C[C@]34C[C@]5(C)C[C@](C)(C3)C[C@@](OCCNCC[C@H](O)CO)(C5)C4)c2C)c(C(=O)O)n1` [P19, 6-{3-[(1,3-benzothiazol-2-yl)amino]-4-methyl-6,7-dihydropyrido[2,3-c]pyridazin-8(5H)-yl}-3-(1-{[3-(2-{[(3S)-3,4-dihydroxybutyl]amino}ethoxy)-5,7-dimethyladamantan-1-yl]methyl}-5-methyl-1H-pyrazol-4-yl)pyridine-2-carboxylic acid], the IC50 worked out at 4.02 nM with ALL-SIL cells (setting [13]); 3.5 nM in the data set on ALL-SIL cells (setting [5]); 3.76 nM in the data set on ALL-SIL cells (setting [6]); 10.8 nM in the data set with DND-41 cells (setting [7]); 7.2 nM with DND-41 cells (setting [8]); 9 nM in the data set with DND-41 cells (setting [9]). Also, the IC50 in the data set with H1650 cells (setting [10]) came to 2.89 nM; with H1650 cells (setting [11]), 1.43 nM; in the data set with H1650 cells (setting [12]), 2.16 nM.

As for `Cc1c(Nc2nc3ccccc3s2)nnc2c1CCCN2c1ccc(-c2cnn(CC34CC5(C)CC(C)(C3)CC(OCCN3CCN(C)CC3)(C5)C4)c2C)c(C(=O)O)n1` [P20, 6-[3-(1,3-benzothiazol-2-ylamino)-4-methyl-6,7-dihydro-5H-pyrido[2,3-c]pyridazin-8-yl]-3-[1-[[3,5-dimethyl-7-[2-(4-methylpiperazin-1-yl)ethoxy]-1-adamantyl]methyl]-5-methyl-pyrazol-4-yl]pyridine-2-carboxylic acid], the IC50 with ALL-SIL cells (setting [13]) was 0.02 nM; in the data set on ALL-SIL cells (setting [5]), 0.08 nM; in the data set with ALL-SIL cells (setting [6]), 0.05 nM; with DND-41 cells (setting [7]) it was 0.38 nM; in the data set with DND-41 cells (setting [8]) it was 0.24 nM; with DND-41 cells (setting [9]), 0.31 nM. Further, the IC50 with H1650 cells (setting [10]) is 0.36 nM; in the data set on H1650 cells (setting [11]) it was 0.5 nM; in the data set with H1650 cells (setting [12]), 0.43 nM.

Take `Cc1c(Nc2nc3ccccc3s2)nnc2c1CCCN2c1ccc(-c2cnn(C[C@]34C[C@]5(C)C[C@](C)(C3)C[C@@](OCCNCCCCO)(C5)C4)c2C)c(C(=O)O)n1` [P22, 6-[3-(1,3-benzothiazol-2-ylamino)-4-methyl-6,7-dihydro-5H-pyrido[2,3-c]pyridazin-8-yl]-3-[1-[[3-[2-(4-hydroxybutylamino)ethoxy]-5,7-dimethyl-1-adamantyl]methyl]-5-methyl-pyrazol-4-yl]pyridine-2-carboxylic acid]: the IC50 in the data set with ALL-SIL cells (setting [13]) was 0.26 nM; in the data set with ALL-SIL cells (setting [5]), 0.5 nM; with ALL-SIL cells (setting [6]), 0.38 nM; in the data set with DND-41 cells (setting [7]), 0.45 nM; in the data set on DND-41 cells (setting [8]) it was 0.26 nM; in the data set with DND-41 cells (setting [9]), 0.36 nM. Moreover, the results for the IC50 with H1650 cells (setting [10]), in the data set with H1650 cells (setting [11]) and in the data set with H1650 cells (setting [12]) were 0.77 nM, 0.79 nM and 0.78 nM, respectively.
